Read-outs that look alike come from different tables or passages of the source.
Tests used:
S. aureus = settings: cited from earlier work
E. coli FtsZ [1] = target: T1, E. coli FtsZ (Escherichia coli, UniProt P0A9A6); test: FtsZ GTPase assay (malachite green); format: biochemical
T1 construct: made in house; host or cells: E. coli BL21(λDE3)
Description: GTPase Assay: Untagged E. coli FtsZ was expressed from pET-3Z^+ in BL21(λDE3) cells (RayChaudhuri, D.; Park, J. T. Nature 1992, 359, 251-254) and purified using a two-step ammonium sulfate fractionation (Romberg et al. J. Biol. Chem. 2001, 276, 11743-11753). FtsZ GTPase assay was performed essentially as described by Margalit et al. (Margalit et al. Proc. Natl. Acad. Sci. U.S.A. 2004, 101, 11821-11826). Briefly, 2 μM E. coli FtsZ in polymerization buffer (4-morpholinepropanesulfonic acid, pH 6.5, 50 mM KCl, 5 mM MgCl2) was preincubated with or without varying concentrations of test compounds (in dimethyl sulfoxide, DMSO) such that the DMSO concentrations in the samples were ˜2%. The control tubes received 2% DMSO alone. After a 5-min preincubation at 25° C., the reactions were initiated by adding 0.5 mM GTP. Aliquots were withdrawn after 5, 15 and 25 ininute intervals and quenched with 50 mM EDTA before color development with the malachite green solution [2 volumes malachite green (0.8 mg/ml)/1 volume polyvinyl alcohol (23.2 mg/ml)/1 volume ammonium molybdate (57.2 mg/ml in 2H2O:3HCl)/2 volumes H2O]. IC50 values were determined from the relative slopes of GTP hydrolysis at different inhibitor concentrations compared to the control with DMSO only.

M. smegmatis = settings: cited from earlier work
B. subtilis = settings: cited from earlier work
P. aeruginosa = settings: dash with footnote b = no significant activity; cited from earlier work
E. coli = settings: dash with footnote b = no significant activity; cited from earlier work
E. coli FtsZ [2] = target: T1, E. coli FtsZ; settings: value from Margalit et al. 2004 (footnote a); read-out: Inhibition of E. coli FtsZ GTPase activity, IC50; cited from earlier work
bacterial strains = settings: higher MICs indicate that a strain is becoming resistant; cited from earlier work
[3] = 2 μM E. coli FtsZ, 0.5 mM GTP, pH 6.5, 25° C., read-out: Inhibition of E. coli FtsZ GTPase activity, IC50

T1 sequence (P0A9A6 whole entry): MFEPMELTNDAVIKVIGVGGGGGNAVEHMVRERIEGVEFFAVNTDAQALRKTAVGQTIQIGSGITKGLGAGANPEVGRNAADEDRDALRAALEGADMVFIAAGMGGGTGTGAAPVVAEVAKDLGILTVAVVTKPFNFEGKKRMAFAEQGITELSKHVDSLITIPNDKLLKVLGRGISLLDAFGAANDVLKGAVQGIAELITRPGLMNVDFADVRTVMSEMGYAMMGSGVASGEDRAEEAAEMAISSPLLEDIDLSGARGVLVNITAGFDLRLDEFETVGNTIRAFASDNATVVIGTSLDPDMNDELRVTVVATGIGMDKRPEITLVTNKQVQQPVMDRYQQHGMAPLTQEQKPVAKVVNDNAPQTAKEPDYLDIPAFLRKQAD

SMILES | Antimicrobial activities (MICs) S. aureus (S. aureus) [µM] | Inhibition of E. coli GTPase activity, in words (E. coli FtsZ [1]) | Antimicrobial activities (MICs) B. subtilis (B. subtilis) [µM] | effective MIC defined by NCCLS (bacterial strains) [µM] | further results
O=C1C[C@@H](c2ccccc2)Oc2c(Cc3ccccc3O)c(O)c(Cc3ccccc3O)c(O)c21 (racemic) [Compound 2, (±)-Dichamanetin] | 1.7 | potent inhibitors | 1.7 |  | IC50 (E. coli FtsZ [1]; [3]): 12.5 ± 0.5 µM; Antimicrobial activities (MICs) M. smegmatis (M. smegmatis): 3.4 µM
O=C1C[C@@H](c2ccccc2)Oc2c(Cc3cc(Cc4ccccc4O)ccc3O)c(O)c(Cc3cc(Cc4ccccc4O)ccc3O)c(O)c21 (racemic) [Compound 3, (±)-2′″-Hydroxy-5″-benzylisouvarinol-B] | 10.7 | potent inhibitors | 2.6 |  | Antimicrobial activities (MICs) P. aeruginosa (P. aeruginosa): 15.4 µM; IC50 (E. coli FtsZ [1]): 8.3 ± 0.5 µM; Antimicrobial activities (MICs) M. smegmatis (M. smegmatis): 3.8 µM; Antimicrobial activities (MICs) E. coli (E. coli): 2.3 µM
CC1(C)CC(=O)c2c(O)c(Cc3ccccc3O)c(O)c(Cc3ccccc3O)c2O1 [5,7-dihydroxy-6,8-bis(2-hydroxybenzyl)-2,2-dimethylchroman-4-one] |  |  |  |  | IC50 (E. coli FtsZ [1]; FIG. 27 legend, test not named, presumably FtsZ GTPase, read-out: IC50): 21 µM
Oc1ccc(Cl)cc1Cc1cc(Cl)cc(Cc2cc(Cl)ccc2O)c1O [Compound 1, Zantrin Z1, reference compound] | 2.5 |  | 1.25 |  | IC50 (E. coli FtsZ [2]): 5 ± 0.5 µM; Antimicrobial activities (MICs) P. aeruginosa (P. aeruginosa): 40 µM; Antimicrobial activities (MICs) E. coli (E. coli): 20 µM
CC(=O)c1c(O)c(Cc2ccccc2O)c(O)c(Cc2ccccc2O)c1O [Compound 11, 2,4,6-Trihydroxy-3,5-di(2′-hydroxybenzyl)-acetophenone] |  | much less potent |  |  | IC50 (E. coli FtsZ [1]; [3]): 60.4 ± 2.2 µM
CC[C@H]1OC(=O)[C@H](C)[C@@H](O[C@H]2C[C@@](C)(OC)[C@@H](O)[C@H](C)O2)[C@H](C)[C@@H](O[C@@H]2O[C@H](C)C[C@H](N(C)C)[C@H]2O)[C@](C)(O)C[C@@H](C)C(=O)[C@H](C)[C@@H](O)[C@]1(C)O [erythromycin] |  |  |  | 0.4 | 
COc1cccc(OC)c1C(=O)N[C@@H]1C(=O)N2[C@@H]1SC(C)(C)[C@@H]2C(=O)O [methicillin] |  |  |  | 0.8 | 
CN[C@H](CC(C)C)C(=O)N[C@H]1C(=O)N[C@@H](CC(N)=O)C(=O)N[C@H]2C(=O)N[C@H]3C(=O)N[C@H](C(=O)N[C@H](C(=O)O)c4cc(O)cc(O)c4-c4cc3ccc4O)[C@H](O)c3ccc(c(Cl)c3)Oc3cc2cc(c3O[C@@H]2O[C@H](CO)[C@@H](O)[C@H](O)[C@H]2O[C@H]2C[C@](C)(N)[C@H](O)[C@H](C)O2)Oc2ccc(cc2Cl)[C@H]1O [vancomycin] |  |  |  | 5.8 | 
